Laboratory results as given in patent EP4803142A2 (Kayothera Inc., priority 2021, dated 2022).

Experiments:
hALDH1a2 = target: T1, hALDH1a2 (Homo sapiens, UniProt O94788); assay: biochemical; settings: read-out: hAldhla2 IC50
T1 construct: pET-Aldh1a2 transformed BL21-DE3 cultures; cell extracts
T1 sequence (O94788 1-518): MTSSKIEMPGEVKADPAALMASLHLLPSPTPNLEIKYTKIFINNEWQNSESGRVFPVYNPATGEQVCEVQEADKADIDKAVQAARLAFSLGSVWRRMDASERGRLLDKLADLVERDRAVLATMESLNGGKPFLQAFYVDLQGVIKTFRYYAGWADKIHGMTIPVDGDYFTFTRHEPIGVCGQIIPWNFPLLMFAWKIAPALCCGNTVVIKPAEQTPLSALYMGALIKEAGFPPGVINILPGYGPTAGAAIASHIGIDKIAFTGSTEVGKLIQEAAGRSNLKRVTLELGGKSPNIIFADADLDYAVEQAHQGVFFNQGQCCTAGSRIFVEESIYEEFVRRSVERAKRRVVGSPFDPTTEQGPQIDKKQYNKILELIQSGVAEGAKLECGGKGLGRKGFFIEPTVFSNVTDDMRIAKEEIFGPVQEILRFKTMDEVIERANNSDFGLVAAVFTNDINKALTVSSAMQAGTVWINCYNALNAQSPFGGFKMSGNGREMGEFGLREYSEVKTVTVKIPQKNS
Description: (§1) Biological Example 5C. Aldh1a2 Enzyme Inhibition Assay
(§2) Cell extracts were spun at 16000 x g for 5 minutes.
(§3) Recombinant enzyme and inhibitor added immediately before assay. Reaction rate measured by resorufin fluorescence. […]
(§4) Table 3B. IC50 values (nM) for inhibition of hALDH1a2 and mALDH1a2 of selected compounds

mALDH1a2 = target: T2, mALDH1a2 (Mus musculus, UniProt Q62148); assay: biochemical; settings: read-out: mAldhla2 IC50
T2 construct: pET-Aldh1a2 transformed BL21-DE3 cultures; cell extracts
T2 sequence (Q62148 1-518): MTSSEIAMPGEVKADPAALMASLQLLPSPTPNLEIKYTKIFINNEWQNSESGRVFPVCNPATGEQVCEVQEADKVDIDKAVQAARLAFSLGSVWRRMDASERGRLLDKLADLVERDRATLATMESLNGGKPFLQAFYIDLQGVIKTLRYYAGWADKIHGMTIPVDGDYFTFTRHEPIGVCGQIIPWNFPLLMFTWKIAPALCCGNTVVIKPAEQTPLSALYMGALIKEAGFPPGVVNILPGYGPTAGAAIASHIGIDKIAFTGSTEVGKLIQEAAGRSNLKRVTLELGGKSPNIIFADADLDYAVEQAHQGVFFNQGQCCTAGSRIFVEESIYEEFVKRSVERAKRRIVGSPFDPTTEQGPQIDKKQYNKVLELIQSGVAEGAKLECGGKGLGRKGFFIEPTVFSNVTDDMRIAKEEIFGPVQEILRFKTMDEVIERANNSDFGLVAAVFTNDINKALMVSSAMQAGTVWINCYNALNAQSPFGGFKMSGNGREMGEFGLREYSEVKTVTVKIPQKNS
Description: as §1, §2, §3, §4

Structure (SMILES) | IC50 (hALDH1a2) [nM] | IC50 (mALDH1a2) [nM]
Cc1ccc2nc(Nc3ccc4c(c3)CCC(=O)N4)ccc2c1 [compound 89] | 10000 | 489
N#Cc1ccc2ccc(Nc3ccc4c(c3)CCC(=O)N4)nc2c1 [compound 90] | 10000 | 6380
Cc1ccc2ccc(Nc3ccc4c(c3)CCC(=O)N4)nc2c1 [compound 91] | 998 | 594
CC1(C)Cc2cc(Nc3cnc4ccccc4n3)ccc2NC1=O [compound 92] | 40 | 31
CC1(C)Cc2cc(Nc3ncc4ccccc4n3)ccc2NC1=O [compound 93] | 80 | 63
CC1(C)Cc2cc(Nc3ccc4ccncc4n3)ccc2NC1=O [compound 94] | 809 | 921
CC1(C)Cc2cc(Nc3ccc4cnccc4n3)ccc2NC1=O [compound 95] | 10000 | 1770
Cc1ccc(Nc2ccc3c(c2)CC(C)(C)C(=O)N3)nc1C [compound 96] | > 10000 | > 10000
CC1(C)Cc2cc(Nc3ccc(Cl)c(Cl)n3)ccc2NC1=O [compound 97] | 466 | 294
CC1(C)Cc2cc(Nc3nc4ccccc4[nH]3)ccc2NC1=O [compound 98] | 3080 | 1290
CC1(C)Cc2cc(Nc3nc4ccccc4o3)ccc2NC1=O [compound 99] | 316 | 184
N#Cc1cccc2ncc(Nc3ccc4c(c3)CCC(=O)N4)cc12 [compound 100] | > 10000 | > 10000
Cc1cccc2ncc(Nc3ccc4c(c3)CCC(=O)N4)cc12 [compound 101] | 1890 | 935
O=S1(=O)CCc2cc(Nc3ccc4ccccc4n3)ccc2N1 [compound 102] | > 10000 | > 10000
CC1(C)Cc2cc(Nc3ccc4cnccc4c3)ccc2NC1=O [compound 103] | > 10000 | 5000
CC1(C)Cc2cc(Nc3ccc4ccncc4c3)ccc2NC1=O [compound 104] | > 10000 | > 10000

Structure (SMILES) | IC50 (hALDH1a2) [nM] | IC50 (mALDH1a2) [nM]
CC1(C)Cc2cc(NC3COc4ccccc4C3)ccc2NC1=O (centres unmarked) [compound 105] | > 10000 | > 10000
CC1(C)Cc2cc(NN3CCC(c4ccccc4)C3=O)ccc2NC1=O (centres unmarked) [compound 106] | > 10000 | > 10000
CC1(C)Cc2cc(Nc3ncc4ccccc4n3)c(F)cc2NC1=O [compound 108] | 120 | 100
CC1(C)Cc2cc(Nc3cnc4ccccc4n3)c(F)cc2NC1=O [compound 109] | 42 | 45
Cc1cccc2ccc(Nc3ccc4c(c3)CC(C)(C)C(=O)N4)nc12 [compound 111] | 196 | 145
CC1(C)Cc2cc(Nc3ccc4c(Cl)cccc4n3)ccc2NC1=O [compound 112] | 346 | 300
Cn1ccc2nc(Nc3ccc4c(c3)CC(C)(C)C(=O)N4)ccc21 [compound 113] | > 10000 | > 10000
CC1(C)Cc2cc(Nc3ccc4c(c3)NC(=O)CC4)ccc2NC1=O [compound 114] | > 10000 | > 10000
CC1(C)Cc2cc(Nc3c[nH]c4ccccc4c3=O)ccc2NC1=O [compound 115] | > 10000 | > 10000
CC1(C)Cc2cc(Nc3nc(=O)c4ccccc4[nH]3)ccc2NC1=O [compound 116] | 305 | 337
CC1(C)Cc2cc(Nc3cnc4ccc(C(=O)O)cc4n3)ccc2NC1=O [compound 118] | > 10000 | > 10000
O=C1CCc2cc(Oc3ncc4ccccc4n3)ccc2N1 [compound 119] | > 10000 | 10000
COC(=O)c1ccc2ncc(Nc3ccc4c(c3)CC(C)(C)C(=O)N4)nc2c1 [compound 120] | 10000 | > 10000
CC1(C)Cc2cc(Nc3cccc(Cl)n3)ccc2NC1=O [compound 122] | > 10000 | > 10000
CC1(C)Cc2cc(Nc3ccc(Cl)cn3)ccc2NC1=O [compound 123] | > 10000 | > 10000
